{
  "source": "patent US20240238314A1",
  "about": "“TREATMENT OF ESSENTIAL TREMOR” (Sage Therapeutics, Inc., priority 2021, published 2024)",
  "key": {"[1]": {"system": "individuals with essential tremor", "experiment": "Phase 2 study, Compound 1 60 mg once daily for 28 days: safety and tolerability (TEAEs, dose reduction, discontinuation; Safety Set)", "type": "in vivo, human", "description": "• Incidence of treatment-emergent adverse events (TEAEs). • Safety and tolerability of Compound 1 as assessed by change from baseline in vital signs, electrocardiograms (ECGs), clinical laboratory parameters, and Columbia-Suicide Severity Rating Scale (C-SSRS). • Physician Withdrawal Checklist (PWC-20).\nParticipants were randomized to receive Compound 1 60 mg or placebo once daily in the morning on a 1:1 basis. If participants reported a TEAE considered by investigator to be related to Compound 1 and not tolerable, investigator might reduce the dose of Compound 1 from 60 mg in 15 mg decrements (i.e., 60 mg, to 45 mg, to 30 mg), as medically appropriate. If intolerable TEAEs persist at the 30 mg dose, Compound 1 was permanently stopped.\nParticipants were monitored for safety during the Treatment and Follow-up Periods (through Study Day 45 [±3 days]) including monitoring for AEs/serious AEs (SAEs), routine clinical laboratory assessments, physical examination, vital signs, and ECG, etc.\nSafety Set: defined as all participants who received at least one dose of Compound 1. The Safety Set was used to provide descriptive summaries of the safety data.\nThe safety and tolerability of Compound 1 were evaluated by adverse events, concomitant medication usage, changes from baseline in physical examination, vital signs, clinical laboratory evaluations, and 12-lead ECG. Suicidality was monitored by the C-SSRS. Safety data were listed by subject and by study drug and summarized descriptively. All safety summaries were performed on the Safety Set.\nThe incidence of adverse events were summarized by system organ class, and preferred term for subjects in Safety Set."}, "[2]": {"system": "individuals with essential tremor", "experiment": "Phase 2 study, Compound 1 60 mg once daily for 28 days: TETRAS ADL total score", "type": "in vivo, human"}, "[3]": {"conditions": "Safety Set, N = 34, listed as Cmpd 1"}},
  "note": "“Also recorded” adds a separate entry of the source.",
  "data": [
    {"compound": "COC[C@@]1(O)CC[C@H]2[C@@H](CC[C@@H]3[C@@H]2CC[C@]2(C)[C@@H](C(=O)Cn4nnc(C)n4)CC[C@@H]32)C1", "note": "[Compound 1]", "values": [
      {"measurement": "Participants with early discontinuation of the study at 60 mg, number", "setting": "[1]", "result": 5},
      {"measurement": "Down-titration of dose, percent of patients", "setting": "[1]; 60 mg down-titrated to 45 mg or 30 mg", "result": 62, "unit": "%"},
      {"measurement": "Early treatment discontinuation, reason Physician Decision, number", "setting": "[1]; N = 34", "result": 1},
      {"measurement": "Early treatment discontinuation, reason Physician Decision, percent", "setting": "[1]; N = 34", "result": 2.9, "unit": "%"},
      {"measurement": "Early treatment discontinuation, reason Subject was lost to follow up, number", "setting": "[1]; N = 34", "result": 0},
      {"measurement": "Early treatment discontinuation, reason Withdrawal by Subject, number", "setting": "[1]; N = 34", "result": 3},
      {"measurement": "Early treatment discontinuation, reason Withdrawal by Subject, percent", "setting": "[1]; N = 34", "result": 8.8, "unit": "%"},
      {"measurement": "TEAE Asthenia, number of participants", "setting": "[1]; Safety Set, N = 34", "result": 1},
      {"measurement": "TEAE Asthenia, percent of participants", "setting": "[1]; Safety Set, N = 34", "result": "(2.9%)"},
      {"measurement": "TEAE Balance disorder, number of participants", "setting": "[1]; Safety Set, N = 34", "result": 5},
      {"measurement": "TEAE Balance disorder, percent of participants", "setting": "[1]; Safety Set, N = 34", "result": 15, "unit": "%"},
      {"measurement": "TEAE Coordination abnormal, number of participants", "setting": "[1]; Safety Set, N = 34", "result": 1},
      {"measurement": "TEAE Coordination abnormal, percent of participants", "setting": "[1]; Safety Set, N = 34", "result": "(2.9%)"},
      {"measurement": "TEAE Diarrhoea, number of participants", "setting": "[1]; Safety Set, N = 34", "result": 2},
      {"measurement": "TEAE Diarrhoea, percent of participants", "setting": "[1]; Safety Set, N = 34", "result": "(5.9%)"},
      {"measurement": "TEAE Diplopia, number of participants", "setting": "[1]; Safety Set, N = 34", "result": 4},
      {"measurement": "TEAE Diplopia, percent of participants", "setting": "[1]; Safety Set, N = 34", "result": 12, "unit": "%"},
      {"measurement": "TEAE Disturbance in attention, number of participants", "setting": "[1]; Safety Set, N = 34", "result": 3},
      {"measurement": "TEAE Disturbance in attention, percent of participants", "setting": "[1]; Safety Set, N = 34", "result": "(8.8%)"},
      {"measurement": "TEAE Dizziness, number of participants", "setting": "[1]; Safety Set, N = 34", "result": 13},
      {"measurement": "TEAE Dizziness, percent of participants", "setting": "[1]; Safety Set, N = 34", "result": 38, "unit": "%"},
      {"measurement": "TEAE Dysarthria, number of participants", "setting": "[1]; Safety Set, N = 34", "result": 4},
      {"measurement": "TEAE Dysarthria, percent of participants", "setting": "[1]; Safety Set, N = 34", "result": 12, "unit": "%"},
      {"measurement": "TEAE Fatigue, number of participants", "setting": "[1]; Safety Set, N = 34", "result": 5},
      {"measurement": "TEAE Fatigue, percent of participants", "setting": "[1]; Safety Set, N = 34", "result": "(14.7%)"},
      {"measurement": "TEAE Gait disturbance, number of participants", "setting": "[1]; Safety Set, N = 34", "result": 4},
      {"measurement": "TEAE Gait disturbance, percent of participants", "setting": "[1]; Safety Set, N = 34", "result": 12, "unit": "%"},
      {"measurement": "TEAE Headache, number of participants", "setting": "[1]; Safety Set, N = 34", "result": 2},
      {"measurement": "TEAE Headache, percent of participants", "setting": "[1]; Safety Set, N = 34", "result": "(5.9%)"},
      {"measurement": "TEAE Insomnia, number of participants", "setting": "[1]; Safety Set, N = 34", "result": 1},
      {"measurement": "TEAE Insomnia, percent of participants", "setting": "[1]; Safety Set, N = 34", "result": "(2.9%)"},
      {"measurement": "TEAE Irritability, number of participants", "setting": "[1]; Safety Set, N = 34", "result": 0},
      {"measurement": "TEAE Lethargy, number of participants", "setting": "[1]; Safety Set, N = 34", "result": 2},
      {"measurement": "TEAE Lethargy, percent of participants", "setting": "[1]; Safety Set, N = 34", "result": "(5.9%)"},
      {"measurement": "TEAE Mental status changes, number of participants", "setting": "[1]; Safety Set, N = 34", "result": 2},
      {"measurement": "TEAE Mental status changes, percent of participants", "setting": "[1]; Safety Set, N = 34", "result": "(5.9%)"},
      {"measurement": "TEAE Myalgia, number of participants", "setting": "[1]; Safety Set, N = 34", "result": 0},
      {"measurement": "TEAE Myoclonus, number of participants", "setting": "[1]; Safety Set, N = 34", "result": 3},
      {"measurement": "TEAE Myoclonus, percent of participants", "setting": "[1]; Safety Set, N = 34", "result": "(8.8%)"},
      {"measurement": "TEAE Paraesthesia, number of participants", "setting": "[1]; Safety Set, N = 34", "result": 2},
      {"measurement": "TEAE Paraesthesia, percent of participants", "setting": "[1]; Safety Set, N = 34", "result": "(5.9%)"},
      {"measurement": "TEAE Somnolence, number of participants", "setting": "[1]; Safety Set, N = 34", "result": 23},
      {"measurement": "TEAE Speech disorder, number of participants", "setting": "[1]; Safety Set, N = 34", "result": 2},
      {"measurement": "TEAE Speech disorder, percent of participants", "setting": "[1]; Safety Set, N = 34", "result": "(5.9%)"},
      {"measurement": "TEAE Urinary tract infection, number of participants", "setting": "[1]; Safety Set, N = 34", "result": 1},
      {"measurement": "TEAE Urinary tract infection, percent of participants", "setting": "[1]; Safety Set, N = 34", "result": "(2.9%)"},
      {"measurement": "TEAE Balance disorder, percent of participants", "setting": "[1]; [3]", "result": "(14.7%)"},
      {"measurement": "TEAE Diplopia, percent of participants", "setting": "[1]; [3]", "result": "(11.8%)"},
      {"measurement": "TEAE Dizziness, percent of participants", "setting": "[1]; [3]", "result": "(38.2%)"},
      {"measurement": "TEAE Dysarthria, percent of participants", "setting": "[1]; [3]", "result": "(11.8%)"},
      {"measurement": "TEAE Gait disturbance, percent of participants", "setting": "[1]; [3]", "result": "(11.8%)"},
      {"measurement": "TEAE Somnolence, percent of participants", "setting": "[1]; [3]", "result": "(67.6%)"},
      {"measurement": "Discontinuations noted, of patients receiving Compound 1", "setting": "[1]; in vivo", "result": 3800},
      {"measurement": "Participants with early discontinuation of the study at 60 mg, percent", "setting": "[1]; in vivo", "result": 14.7, "unit": "%"},
      {"measurement": "Severe adverse events (SAEs) reported by one participant, in words", "setting": "[1]; individual participants of the Compound 1 group", "result": "mental status changes; also recorded: dehydration; also recorded: headache; also recorded: transient ischaemic attack"},
      {"measurement": "Early treatment discontinuation due to adverse event (TEAEs leading to treatment discontinuation), number", "setting": "[1]; of 34", "result": 9},
      {"measurement": "Early treatment discontinuation due to adverse event (TEAEs leading to treatment discontinuation), percent", "setting": "[1]; of 34", "result": 26.5, "unit": "%"},
      {"measurement": "Participants reporting TEAEs leading to study discontinuation, number", "setting": "[1]; of 34", "result": 4},
      {"measurement": "Participants reporting TEAEs leading to study discontinuation, percent", "setting": "[1]; of 34", "result": 11.8, "unit": "%"},
      {"measurement": "Participants reporting TEAEs resulting in treatment dose reduction, number", "setting": "[1]; of 34", "result": 21},
      {"measurement": "Participants reporting TEAEs resulting in treatment dose reduction, percent", "setting": "[1]; of 34", "result": 61.8, "unit": "%"},
      {"measurement": "Participants reporting severe TEAEs, number", "setting": "[1]; of 34", "result": 11},
      {"measurement": "Participants reporting severe TEAEs, percent", "setting": "[1]; of 34", "result": 32.4, "unit": "%"},
      {"measurement": "Participants reporting treatment-emergent adverse events (TEAEs), number", "setting": "[1]; of 34", "result": 33},
      {"measurement": "Participants reporting treatment-emergent adverse events (TEAEs), percent", "setting": "[1]; of 34", "result": 97.1, "unit": "%"},
      {"measurement": "Participants who completed the study at 60 mg dose, number", "setting": "[1]; of 34", "result": 8},
      {"measurement": "Participants who completed the study at 60 mg dose, percent", "setting": "[1]; of 34", "result": 23.5, "unit": "%"},
      {"measurement": "Participants who had dose reduced to 30 mg from 60 mg directly, number", "setting": "[1]; of 34", "result": 2},
      {"measurement": "Participants who had dose reduced to 30 mg from 60 mg directly, percent", "setting": "[1]; of 34", "result": 5.9, "unit": "%"},
      {"measurement": "Participants who had dose reduced to 45 mg, number", "setting": "[1]; of 34", "result": 19},
      {"measurement": "Participants who had dose reduced to 45 mg, percent", "setting": "[1]; of 34", "result": 55.9, "unit": "%"},
      {"measurement": "LSMean Difference (CI) vs placebo in CFB in TETRAS ADL total score", "setting": "[2]; Baseline TETRAS ADL ≥ 28, Day 29", "result": "−1.47"},
      {"measurement": "LSMean difference vs placebo in change from baseline in TETRAS ADL total score", "setting": "[2]; Full Analysis Set, Day 8", "result": "−2.80"},
      {"measurement": "Change from baseline in TETRAS ADL subscale total score compared with placebo, in words", "setting": "[2]; Full Analysis Set, Day 29", "result": "numerically superior to placebo but failed to reach statistical significance"},
      {"measurement": "LSMean difference vs placebo in change from baseline in TETRAS ADL total score", "setting": "[2]; Full Analysis Set, Day 29", "result": "−1.37 (−3.81, 1.08)"}
    ]}
  ]
}
